Earlier results in patent publication US20030134851A1, “Methods and compositions for providing glutamine” (priority 2001, published 2003).

Details: rodents; cited from earlier work

O=C1CC[C@@H](C(=O)O)N1 [pyroglutamic acid]
Neurotoxicity: is a neurotoxin in rodents
